Data published in PMC7833800 (Journal of Virological Methods, 2020).
Like-named read-outs stand apart in the source and are kept apart here.

Biological target: SARS-CoV RTC (nsp12 in complex with nsp7L8) (Severe acute respiratory syndrome coronavirus, UniProt P0C6X7)
Assay: biochemical

Row | SMILES | IC50 [µM] | IC50 (IC50) [µM]
1 | O=c1ccn([C@@H]2O[C@H](COP(=O)(O)OP(=O)(O)OP(=O)(O)O)C[C@H]2O)c(=O)[nH]1 [3’dUTP] | 6.7 | –
2 | O=c1cc(-c2ccc(O)cc2)oc2cc(O)cc(O)c12 [Apigenin] | – | 96
3 | O=c1cc(-c2ccc(Oc3c(O)cc4oc(-c5ccc(O)cc5)cc(=O)c4c3O)cc2)oc2cc(O)cc(O)c12 [Hinokiflavone] | – | 0.95
